{"source": "patent US20140171419A1", "about": "“ENHANCEMENT OF CELLULAR TRANSPLANTATION USING SMALL MOLECULE MODULATORS HEPATOCYTE GROWTH FACTOR (SCATTER FACTOR) ACTIVITY” (ANGION BIOMEDICA CORP, priority 2009, published 2014)", "tested_on": "primary human hepatocytes", "assay": "BrdU cell proliferation assay in cryopreserved primary human hepatocytes", "format": "cell-based", "conditions": "50 ng/ml, overnight treatment, 4 hour BrdU incubation; control 0.032±0.011", "method": "Cryopreserved primary human hepatocytes (CellzDirect catalog #[…], Lot # Hu0948) were plated on a collagen-coated 96 well plate according to the supplier's instructions and allowed to adhere and stabilize for 48 hours. Cells were treated with a compound of formula (II) embodied herein (10 μM final concentration) or HGF (50 ng/ml) overnight, and the next day, cell proliferation was determined using a BrdU assay (Chemicon, catalog #2750) according to the manufacturer's instructions, with a 4 hour incubation period of BrdU. Plates were read at 450 and 550 (background) nm and the difference was taken as an indicator of cell proliferation. Both test compound and HGF stimulated the BrdU incorporation in hepatocytes vs. control: test compound, 0.336±0.072; HGF, 0.388±0.134; and control, 0.032±0.011. Hepatocytes enhanced using the compounds of the invention can be used subsequently for cellular transplant into a human recipient, providing enhanced cell survival and numbers to increase the quality of the cells used in the transplant, the survival of cells after transplant and reduce the number of cells required to achieve the desired outcome of the transplant procedure and restoring or enhancing hepatic function in the recipient.", "data": [{"substance": "HGF: hepatocyte growth factor (scatter factor), a pleiotropic growth factor, used as positive comparator", "values": [{"measurement": "BrdU incorporation (difference of plate readings at 450 and 550 (background) nm, indicator of cell proliferation)", "result": "0.388±0.134"}]}]}
